Measurements published in patent publication US6248750A, “9-hydroxyamino tetrahydroacridine and related compounds” (Hoechst Roussel Pharmaceuticals, priority 2000, dated 2001).
Structures can show the parent of a compound that is named as a salt. Where two headings read alike, the source gives them in different places.

Legend:
mice = assay: Dark Avoidance Assay (reversal of scopolamine induced memory deficit); assay type: in vivo; conditions: retest after 24 hours
Method: In this assay mice are tested for their ability to remember an unpleasant stimulus for a period of 24 hours. A mouse is placed in a chamber that contains a dark compartment; a srong incandescent light drives it to the dark compartment, where an electric shock is administered through metal plates on the floor. The animal is removed from the testing apparatus and tested again, 24 hours later, for the ability to remember the electric shock.
If scopolamine, an anticholinergic that is known to cause memory impairment, is administered before an animal's initial exposure to the test chamber, the animal re-enters the dark compartment shortly after being placed in the test chamber 24 hours later.

acetylcholinesterase = acetylcholinesterase (Homo sapiens, UniProt P22303); assay: biochemical
Chain of acetylcholinesterase (P22303 32-614): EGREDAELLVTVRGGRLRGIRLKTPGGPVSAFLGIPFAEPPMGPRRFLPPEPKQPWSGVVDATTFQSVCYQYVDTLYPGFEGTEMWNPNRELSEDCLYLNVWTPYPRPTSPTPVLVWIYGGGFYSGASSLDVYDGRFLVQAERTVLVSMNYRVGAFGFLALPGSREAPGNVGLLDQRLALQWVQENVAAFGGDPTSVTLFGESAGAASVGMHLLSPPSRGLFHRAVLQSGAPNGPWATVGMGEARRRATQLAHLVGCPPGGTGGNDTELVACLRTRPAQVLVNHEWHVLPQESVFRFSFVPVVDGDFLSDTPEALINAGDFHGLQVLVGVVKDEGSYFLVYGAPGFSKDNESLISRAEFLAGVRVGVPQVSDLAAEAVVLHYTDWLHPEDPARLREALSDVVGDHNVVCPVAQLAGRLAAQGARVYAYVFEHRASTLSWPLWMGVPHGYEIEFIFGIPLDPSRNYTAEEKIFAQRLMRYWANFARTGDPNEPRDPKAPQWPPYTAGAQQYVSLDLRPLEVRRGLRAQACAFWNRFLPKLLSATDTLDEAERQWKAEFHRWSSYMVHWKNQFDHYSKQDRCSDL

| Structure (SMILES) | IC50 (acetylcholinesterase) | % Animals with Scopolamine Induced memory deficit reversed (mice; dose 1.0 mg/kg s.c.) | also measured |
| --- | --- | --- | --- |
| Nc1c2c(nc3ccccc13)CCCC2 [9-Amino-1,2,3,4-tetrahydroacridine, reference compound] |  |  | % Animals with Scopolamine Induced memory deficit reversed (mice; dose 0.31 mg/kg s.c.): 20% |
| Fc1ccccc1CONc1c2c(nc3ccccc13)CCCC2 [N-(2-Fluorobenzyloxy)-1,2,3,4-tetrahydro-9-acridinamine] | 5.2 µM |  |  |
| c1ccc(CONc2c3c(nc4ccccc24)CCCC3)cc1 [N-Benzyloxy-1,2,3,4-tetrahydro-9-acridinamine] | 6.1 µM |  |  |
| CONc1c2c(nc3ccccc13)CCCC2.Cl [N-Methoxy-1,2,3,4-tetrahydro-9-acridinamine hydrochloride] | 0.51 µM | 27% |  |
| CON(C)c1c2c(nc3ccccc13)CCCC2 [N-Methoxy-N-methyl-1,2,3,4-tetrahydro-9-acridinamnine hydrochloride] |  | 27% | IC50 (acetylcholinesterase; read-out: Cholinesterase Inhibition IC50): 27 µM |
| CCCONc1c2c(nc3ccccc13)CCCC2 [N-Propyloxy-1,2,3,4-tetrahydro-9-acridinamine, oxalate, hemihydrate] |  |  | IC50 (acetylcholinesterase; read-out: Cholinesterase Inhibition IC50, photometric method of Ellman et al.): 0.83 µM |
